According to US20170059573A1, “METHOD OF DETECTING PEROXYNITRITE USING A COMPLEX OF A SACCHARIDE AND AN ARYLBORONATE-BASED FLUORESCENT PROBE” (UNIVERSITY OF BATH, priority 2014, published 2017):

How the values were obtained:
[1] = UV-Vis absorption spectra; format: physicochemical
Procedure: While the presence of ONOO^− (100 μM), a new peak (A=0.021) at 360 nm developed due to the formation of phenol.

[2] = Fluorescence titration with peroxynitrite; settings: saccharide free probe 2 μM; peroxynitrite 60 μM; pH 7.3 PBS
[3] = Fluorescence response to D-fructose binding; settings: probe 2 μM; D-fructose 100 mM; pH 7.3 buffer
Procedure: (a) Fluorescence spectra of probe 1 (2 μM) and then addition of D-fructose (100 mM). After addition of D-fructose, the mixtures were stirred for 10 min; (b) Probe 1-D-fructose complex (probe 1, 2 μM; D-fructose, 100 mM) in different concentration of ONOO^−. After addition of peroxynitrite, the mixtures were stirred for 5 min;
The saccharide-boronic acid complexes were formed by mixing free boronic acid (2 μM) with D-fructose (100 mM) for 10 min in situ.
In the case of probe 1, a significant “off-on” signal response is seen on binding with D-fructose due to an inhibition of PET mechanism. From FIG. 3a, the maximum fluorescence intensity of probe 1 (2 μM, λem=525 nm) is increased two-fold in the presence of D-fructose (100 mM) at pH 7.3 buffer solution.

[4] = Fluorescence response to hydrogen peroxide
Procedure: The pH was adjusted from 7.30 to 8.10 using aqueous sodium hydroxide (10 N); (b) Fluorescence spectra of probe 1-D-fructose complex (probe 1, 2 μM; D-fructose, 100 mM) in the presence of hydrogen peroxide (1 mM) at pH 7.3 buffer solution. The spectra were collected at increasing reaction times with excitation at 410 nm (Ex slit: 5.0, Em slit: 5.0);
The concentration of hydrogen peroxide (H2O2) was determined from the absorption at 240 nm (ε=43.6 M^−1 cm^−1).
Since boronate-based derivatives can be oxidized to phenol by H2O2 and ONOO^−, it is important to discriminate them by fluorescence tools. Independently, the present inventors tested the responses of probe 1 and 1-D-fructose complex towards hydrogen peroxide (FIG. 7). With the free boronic acid system, the fluorescence of probe 1 (2 μM) increased to F/F0=ca. 1.59 in the presence of hydrogen peroxide (100 μM) over 1 h at pH 7.30 buffer solution. When the solution was adjusted to pH 8.10, the fluorescence decreased most probably due to the decomposition of the intermediate to phenol (FIG. 7a). This is different from the process observed for the detection of ONOO^− in which boronic acid was transformed into phenol quickly and directly.
The fluorescence reaction of 1-D-fructose complex towards ONOO^− amd H2O2 at pH 5.0 buffer solution in order to mimic the acidic conditions found in cancer cells (FS5) was also studied. […]

[5] = pH titration of fluorescence intensity; format: physicochemical; settings: probe 2 μM
Procedure: As shown by FIG. 2, the fluorescence intensity of the probe 1 decreased at pH values above 8.0. […] Thus, the probe can be expected to work well under physiological conditions (pH 7.30, PBS buffer). In the presence of D-fructose (100 mM), the fluorescence of the formed 1-D-fructose complex increases due to the enhanced N—B interaction at different pH values. The fluorescence of 1-D-fructose complex decreases over a pH range of 3-11.

Compound: CN(CCNc1ccc2c3c(cccc13)C(=O)N(CCOCCO)C2=O)Cc1ccccc1B(O)O [probe 1]
- maximum absorption A at 440 nm ([1]; free boronic acid probe 2 μM): 0.026
- absorption A of new peak at 360 nm ([1]; in presence of ONOO− 100 μM): 0.021
- absorption A at the maximum absorption wavelength ([1]; probe 2 μM with D-fructose 100 mM): 0.019
- F/F0 [2]: ca. 0.10
- increase of maximum fluorescence intensity (λem=525 nm) in presence of D-fructose [3]: two-fold
- F/F0 ([4]; free boronic acid probe 2 μM, hydrogen peroxide 100 μM over 1 h, pH 7.30 buffer): ca. 1.59
- fluorescence after adjusting the solution to pH 8.10 ([4]; probe 2 μM after H2O2 100 μM, pH adjusted from 7.30 to 8.10): decreased
- pH effect on fluorescence intensity ([5]; pH range between 3.0 and 8.0): minimal effect
- pH effect on fluorescence intensity ([5]; pH values above 8.0): decreased
